One assay deals with human HDAC-1 (Homo sapiens, UniProt Q13547). The experiment in a line: Inhibition of histone deacetylase enzymatic (HDAC-1) activity. The class given is biochemical. Particulars: Table 6C. How it is done:
The following protocol was used to assay the compounds of the invention.
The mixture was pre-incubated for 5 minutes at room temperature. The reaction was started by bringing the temperature to 37° C. and adding 16 μl substrate.

Assay [1] relates to HCT116 human colon cancer cells. The experiment in a line: MTT assay, antiproliferative activity. The class given is cell-based. Particulars: HCT-116, 72 hours. How it is done:
(§1) Table 6C provides data on inhibition of HDAC1 enzyme, on antiproliferative activities (HCT116 human colon cancer cells) of the compounds using 3-[4,5-dimethylthiazol-2-yl-2,5-diphenyltetrazolium]bromide (MTT) assay, as well as induction of p21^WAF1/Cip1 tumor suppressor gene.
Compounds at various concentrations were added to human colon cancer HCT116 cells plated in 96-well plates. Cells were incubated for 72 hours at 37° C. in 5% CO2 incubator. MTT (3-[4,5-dimethylthiazol-2-yl]-2,5 diphenyl tetrazolium bromide, Sigma) was added at a final concentration of 0.5 mg/ml and incubated with the cells for 4 hours before an equal volume of solubilization buffer (50% N,N-dimethylformamide, 20% SDS, pH 4.7) was added onto cultured cells. After overnight incubation, solubilized dye was quantified by colorimetric reading at […] using a reference at 630 nM. OD values were converted to cell numbers according to a standard growth curve of the relevant cell line. The concentration which reduces cell numbers to 50% of those of DMSO-treated cells is determined as MTT IC50,

For assay [2], the system named is p21^WAF1/Cip1 tumor suppressor gene. The experiment in a line: p21WAF1/Cip1 assay (p21 promoter-driven luciferase reporter). The class given is cell-based, human. Particulars: for P21 (HCT116) μM, effective concentration (EC) for induction of p21: HCT116 cells with p21 promoter-driven luciferase, 16 hours, compared with MS-275. How it is done: as §1
HCT116 cells were stably transfected with reporter plasmids encoding the p21 promoter-driven luciferase. Cells were treated with indicated concentration of HDAC inhibitors for 16 hours before cells were harvested and luciferase activity analyzed. The effective concentration (EC) of MS-275 was designated as 1 uM. The ability of HDAC inhibitor was compared with that of MS-275 (T. Suzuki, et. al J. Med. Chem., 1999, 3001-3003).

The subject of assay [3] is HCT116 human colorectal carcinoma cells. The experiment in a line: Antineoplastic effects on human tumor xenografts in vivo, HCT116. Particulars: hct116 xenograft in mice, daily injection. How it is done:
(§2) Eight to ten week old female BCDI mice (Taconic Labs, Great Barrington, N.Y.) were injected subcutaneously in the flank area with 2×10^6 preconditioned HCTI 16 human colorectal carcinoma cells, A549 human lung cancer, SW48 human colorectal cancer, A431 vulval caracinoma and colo205 human colorectal cancer. Preconditioning of these cells was done by a minimum of three consecutive tumor transplantations in the same strain of nude mice. Subsequently, tumor fragments of approximately 30 mgs were excised and implanted subcutaneously in mice, in the left flank area, under Forene anesthesia (Abbott Labs, Geneva, Switzerland). When the tumors reached a mean volume of 100 mm^3, the mice were treated intravenously, subcutaneously, or intraperitoneally by daily injection, with a solution of the histone deacetylase inhibitor in an appropriate vehicle, such as PBS, DMSO/water, or Tween 80/water, at a starting dose of 10 mg/kg. The optimal dose of the HDAC inhibitor was established by dose response experiments according to standard protocols. Tumor volume was calculated every second day post infusion according to standard methods (e.g., Meyer et al., Int. J. Cancer 43: 851-856 (1989)).
(Xenograft models place foreign cells or tissue in a host animal.)

The subject of the next assay is A549 human lung cancer. The experiment in a line: Antineoplastic effects on human tumor xenografts in vivo, A549. The settings on record: A549 xenograft in mice, daily injection. How it is done: as §2
The next assay relates to A431 vulval carcinoma. The experiment in a line: Antineoplastic effects on human tumor xenografts in vivo, A431. Particulars: A431 xenograft in mice, daily injection. Here is the method: as §2

Chain of human HDAC-1 (Q13547 whole entry): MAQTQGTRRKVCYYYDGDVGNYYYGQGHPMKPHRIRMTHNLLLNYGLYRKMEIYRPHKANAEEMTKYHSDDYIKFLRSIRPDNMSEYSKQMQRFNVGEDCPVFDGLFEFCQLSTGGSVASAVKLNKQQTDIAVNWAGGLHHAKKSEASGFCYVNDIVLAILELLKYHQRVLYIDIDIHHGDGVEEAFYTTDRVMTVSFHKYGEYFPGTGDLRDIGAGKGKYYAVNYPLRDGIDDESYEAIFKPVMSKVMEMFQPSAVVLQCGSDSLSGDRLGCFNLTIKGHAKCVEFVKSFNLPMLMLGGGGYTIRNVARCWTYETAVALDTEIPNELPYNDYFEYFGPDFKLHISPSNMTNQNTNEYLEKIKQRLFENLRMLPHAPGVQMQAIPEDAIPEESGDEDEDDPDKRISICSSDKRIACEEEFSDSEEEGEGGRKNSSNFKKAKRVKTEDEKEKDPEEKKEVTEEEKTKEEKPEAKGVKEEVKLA

A word on the IC50: it is the midpoint of a concentration-inhibition curve. Higher therefore signals lower potency. With `CN(C)CCOC(=O)Nc1ccc(C(=O)Nc2cc(-c3cccs3)ccc2N)cc1` [164cc, 2-(dimethylamino)ethyl 4-((2-amino-5-(thiophen-2-yl)phenyl)carbamoyl)phenylcarbamate], the IC50 (against human HDAC-1; in assay [1]) was < 1 µM each time. Moreover, in assay [2], the “P21 (HCT116) μM, effective concentration (EC) for induction of p21” value (“P21 (HCT116) μM, effective concentration” below) was “b (1≦b≦20)”.

`Nc1ccc(-c2cccs2)cc1NC(=O)c1ccc(Cn2c(=O)[nH]c3ccccc3c2=O)cc1` [compound 349]: the IC50 (on human HDAC-1; in assay [1]) was < 1 µM throughout. The “P21 (HCT116) μM, effective concentration” value in assay [2] is reported as “b (1≦b≦20)”.

Regarding `Nc1ccccc1NC(=O)c1ccc(CNC(=O)OCc2cccnc2)cc1` [MS-275, reference compound], the “effective concentration (EC) for p21 induction” value in assay [2] (reference compound, value designated) came out at 1 µM.

Consider `CC(=O)Nc1ccc(C(=O)Nc2cc(-c3cccs3)ccc2N)cc1` [258aa, 4-acetamido-N-(2-amino-5-(thiophen-2-yl)phenyl)benzamide], for which the IC50 in assay [1] is < 1 µM. In addition, the “P21 (HCT116) μM, effective concentration” value in assay [2] is listed as “b (1≦b≦20)”. Besides, the antineoplastic effects entry (in assay [3]; with A549 human lung cancer; in the assay on A431 vulval carcinoma) was “antineoplastic effects” in each case.

Take `Cc1nc2ccc(C(=O)Nc3cc(-c4cccs4)ccc3N)cc2o1` [286aa, N-(2-amino-5-(thiophen-2-yl)phenyl)-2-methylbenzo[d]oxazole-6-carboxamide]: the IC50 (on human HDAC-1; in assay [1]) was < 1 µM throughout. Also, the “P21 (HCT116) μM, effective concentration” value in assay [2] was “b (1≦b≦20)”.

As to `Nc1ccc(-c2cccs2)cc1NC(=O)c1ccc2ncccc2c1` [258cc, N-(2-amino-5-(thiophen-2-yl)phenyl)quinoline-6-carboxamide], the half-inhibitory concentration (IC50) (on human HDAC-1; in assay [1]) was < 1 µM each time. For the same molecule, the “P21 (HCT116) μM, effective concentration” value in assay [2] is on record as “b (1≦b≦20)”.

In the case of `Nc1ccc(-c2cccs2)cc1NC(=O)c1ccsc1` [258nn, N-(2-amino-5-(thiophen-2-yl)phenyl)thiophene-3-carboxamide], the values for the half-maximal inhibitory concentration (IC50) (on human HDAC-1; in assay [1]) were < 1 µM and 1 to 20 µM, respectively. In addition, the “P21 (HCT116) μM, effective concentration” value in assay [2] is listed as “b (1≦b≦20)”.

For the molecule `Cc1cc(C)nc(N(C)c2ccc(C(=O)Nc3cc(-c4cccs4)ccc3N)cc2)n1` [258hh, N-(2-amino-5-(thiophen-2-yl)phenyl)-4-((4,6-dimethylpyrimidin-2-yl)(methyl)amino)benzamide], the concentration for half-maximal inhibition (IC50) (against human HDAC-1; in assay [1]) was < 1 µM in each case. Further, in assay [2], the “P21 (HCT116) μM, effective concentration” value was “b (1≦b≦20)”.

Turning to `Nc1ccc(-c2cccs2)cc1NC(=O)c1ccc(OC(=O)c2ccc(O)cc2)cc1` [258mm, 4-((2-amino-5-(thiophen-2-yl)phenyl)carbamoyl)phenyl 4-hydroxybenzoate], the IC50 (on human HDAC-1; in assay [1]) was < 1 µM in each case. In addition, in assay [2], the “P21 (HCT116) μM, effective concentration” value is “b (1≦b≦20)”.

For the molecule `Nc1ccc(-c2cccs2)cc1NC(=O)c1ccc(O)cc1` [258pp, N-(2-amino-5-(thiophen-2-yl)phenyl)-4-hydroxybenzamide], the IC50 (at human HDAC-1; in assay [1]) was < 1 µM throughout. Also, in assay [2], the “P21 (HCT116) μM, effective concentration” value is given as “b (1≦b≦20)”.

With `COc1ccc(C(=O)Nc2cc(-c3cccs3)ccc2N)cc1` [258qq, N-(2-amino-5-(thiophen-2-yl)phenyl)-4-methoxybenzamide], the IC50 (at human HDAC-1; in assay [1]) was < 1 µM each time. Also, the “P21 (HCT116) μM, effective concentration” value in assay [2] is given as “b (1≦b≦20)”.

In the case of `Nc1ccc(-c2cccs2)cc1NC(=O)c1ccc2c(c1)OCO2` [Compound 256a], the IC50 (on human HDAC-1; in assay [1]) was < 1 µM throughout.

As for `COc1cccc(C(=O)Nc2cc(-c3cccs3)ccc2N)c1` [Compound 181], the IC50 (on human HDAC-1; in assay [1]) was < 1 µM each time.

The values above are taken from patent US7868205B2, “Inhibitors of histone deacetylase” (MethylGene Inc., priority 2003, dated 2011).
